Reference: ChEMBL document CHEMBL5338723, “Emerging Target-Directed Approaches for the Treatment and Diagnosis of Microbial Infections” (J Med Chem, 2023)
Converted amounts (≈) assume the structure as drawn. *1 amine or outer side, *2 acyl side, *3 side chain or, on linkers, in order; H or OH if unused. Where a SMILES comes first, the peptide text is derived from it. Side-chain parts run from the residue outwards. [ ]: non-standard residue; d: D form. The star is where a group is joined. X1 = Cn1c(=N)ccn([C@@H]2S[C@H]([C@@H](O)[C@@H](N[*:1])C(=O)[*:2])[C@H](O)[C@H]2O)c1=O; DAMPA = CN(Cc1cnc2nc(N)nc(N)c2n1)c1ccc(C(=O)*)cc1; Orn(N5-OH,N5-Ac) = CC(=O)N(O)CCC[C@H](N)C(=O)O; γGlu = O=C(O)[C@H](CCC(=O)[*:2])N[*:1]; Ethylenediamine = C(CN[*:2])N[*:1]

Legend:
[1] = tested on: Yersinia enterocolitica; assay: Antimicrobial activity against Yersinia enterocolitica assessed as microbial growth inhibition; type: functional
[2] = tested on: Streptococcus pneumoniae; assay: Antimicrobial activity against Streptococcus pneumoniae assessed as microbial growth inhibition; type: functional
[3] = Potency index, ratio of test compound LD50 to methotrexate LD50 for cytotoxicity against human L02 cells; type: toxicity, cell-based
[4] = Cytotoxicity against human L02 assessed as lethal dose; type: toxicity, cell-based; settings: L02 cells, read-out: LD50 (the source's name)
[5] = tested on: Escherichia coli; assay: Antimicrobial activity against aroB/fepA/cir negative Escherichia coli H1875 assessed as microbial growth inhibition; type: functional
[6] = tested on: Escherichia coli; assay: Antimicrobial activity against Escherichia coli F assessed as microbial growth inhibition; type: functional
[7] = tested on: Escherichia coli; assay: Antimicrobial activity against aroB/cir negative Escherichia coli H2222 assessed as microbial growth inhibition; type: functional
[8] = tested on: Salmonella enteritidis; assay: Antimicrobial activity against Salmonella enterica subsp. enterica serovar Enteritidis assessed as increase in microbial growth inhibition; type: functional
[9] = tested on: Escherichia coli; assay: Antimicrobial activity against Escherichia coli W3110 assessed as microbial growth inhibition; type: functional
[10] = tested on: Escherichia coli; assay: Antimicrobial activity against pTon positive Escherichia coli W3110-KP1344 harboring pMS7 assessed as microbial growth inhibition; type: functional
[11] = tested on: Escherichia coli; assay: Antimicrobial activity against aroB/fepA negative Escherichia coli H873 assessed as microbial growth inhibition; type: functional
[12] = tested on: Escherichia coli; assay: Antimicrobial activity against Escherichia coli ML35p assessed as microbial growth inhibition; type: functional
[13] = tested on: Escherichia coli; assay: Antimicrobial activity against aroB/fiu negative Escherichia coli H1594 assessed as microbial growth inhibition; type: functional
[14] = tested on: Enterobacter cloacae; assay: Antibacterial activity against Enterobacter cloacae; type: functional
[15] = tested on: Escherichia coli; assay: Antimicrobial activity against Escherichia coli C600 harboring pHX405 plasmid assessed as microbial growth inhibition; type: functional
[16] = tested on: Klebsiella pneumoniae; assay: Antibacterial activity against Klebsiella pneumoniae assessed as microbial growth inhibition; type: functional
[17] = tested on: Escherichia coli; assay: Antimicrobial activity against Escherichia coli MC4100 assessed as microbial growth inhibition; type: functional
[18] = tested on: Escherichia coli; assay: Antimicrobial activity against Escherichia coli B assessed as microbial growth inhibition; type: functional
[19] = tested on: Escherichia coli; assay: Antimicrobial activity against exbB/exbD negative Escherichia coli W3110-6 assessed as microbial growth inhibition; type: functional
[20] = tested on: Escherichia coli; assay: Antimicrobial activity against aroB/cir/fiu negative Escherichia coli H1728 assessed as microbial growth inhibition; type: functional
[21] = tested on: Escherichia coli; assay: Antimicrobial activity against fhuA negative Escherichia coli C600 assessed as microbial growth inhibition; type: functional
[22] = tested on: Escherichia coli; assay: Antimicrobial activity against aroB negative Escherichia coli H1443 assessed as microbial growth inhibition; type: functional
[23] = tested on: Escherichia coli; assay: Antimicrobial activity against aroB/fepA/fiu negative Escherichia coli H1877 assessed as microbial growth inhibition; type: functional

SMILES: CC(=O)N(O)CCC[C@H](NC(=O)[C@H](CCCN(O)C(C)=O)NC(=O)[C@@H](N)CCCN(O)C(C)=O)C(=O)N[C@@H](CCC(=O)NCCNC(=O)CC[C@H](NC(=O)c1ccc(N(C)Cc2cnc3nc(N)nc(N)c3n2)cc1)C(=O)O)C(=O)O (H-[Orn(N5-OH,N5-Ac)][Orn(N5-OH,N5-Ac)][Orn(N5-OH,N5-Ac)]E([Ethylenediamine-γGlu-DAMPA])-OH)
- MIC [1]: 6.84 nM (≈ 0.00781 µg/mL)
- MIC [2]: 1.72 nM (≈ 0.00196 µg/mL)
- selectivity ratio [3]: 2310
- CC50 [4]: 18.5 µM

SMILES: CC(=O)N(O)CCC[C@H](NC(=O)[C@H](CCCN(O)C(C)=O)NC(=O)[C@@H](N)CCCN(O)C(C)=O)C(=O)N[C@@H](CO)C(=O)N[C@@H](C(=O)O)[C@H](O)[C@H]1S[C@@H](n2ccc(=N)n(C)c2=O)[C@H](O)[C@H]1O (H-[Orn(N5-OH,N5-Ac)][Orn(N5-OH,N5-Ac)][Orn(N5-OH,N5-Ac)]S[X1]-OH)
- MIC [5]: 0.04 µM (≈ 0.038 µg/mL)
- MIC [6]: 0.04 µM (≈ 0.038 µg/mL)
- MIC [7]: 0.04 µM (≈ 0.038 µg/mL)
- MIC [8]: 0.04 µM
- MIC [9]: 0.04 µM (≈ 0.038 µg/mL)
- MIC [10]: 0.04 µM (≈ 0.038 µg/mL)
- MIC [11]: 0.04 µM (≈ 0.038 µg/mL)
- MIC [12]: 0.04 µM (≈ 0.038 µg/mL)
- MIC [13]: 0.04 µM (≈ 0.038 µg/mL)
- MIC [14]: 0.04 µM (≈ 0.038 µg/mL)
- MIC [15]: 0.04 µM (≈ 0.038 µg/mL)
- MIC [16]: 0.04 µM (≈ 0.038 µg/mL)
- MIC [17]: 0.04 µM (≈ 0.038 µg/mL)
- MIC [18]: 0.04 µM (≈ 0.038 µg/mL)
- MIC [19]: 0.04 µM (≈ 0.038 µg/mL)
- MIC [20]: 0.04 µM (≈ 0.038 µg/mL)
- MIC [21]: 0.04 µM (≈ 0.038 µg/mL)
- MIC [22]: 0.04 µM (≈ 0.038 µg/mL)
- MIC [23]: 0.04 µM (≈ 0.038 µg/mL)
